± gives the expanded uncertainty stated by the source.
Key:
[1] = 323.15 K; for mass density / viscosity: 101.33 kPa, Liquid; for viscosity: Capillary tube (Ostwald / Ubbelohde) method
[2] = xn = mol fraction of the nth substance listed; settings: 323.15 K; for viscosity / mass density: 101 kPa; for viscosity: Capillary tube (Ostwald / Ubbelohde) method

CCCCOC(C)=O [butyl ethanoate]
surface tension liquid-gas ([1]; Ring tensiometer): 22.12 ± 0.06 mN/m | mass density [1]: 849.75 ± 0.4 kg/m3 | viscosity [1]: 0.502 ± 0.004 mPa·s

CCCCOC(C)=O [butyl ethanoate] + CCCO
viscosity ([2]; Liquid, x1 = 0.1): 0.879 ± 0.006 mPa·s | viscosity ([2]; Liquid, x1 = 0.2): 0.747 ± 0.005 mPa·s | viscosity ([2]; Liquid, x1 = 0.3): 0.662 ± 0.005 mPa·s | viscosity ([2]; Liquid, x1 = 0.4): 0.604 ± 0.004 mPa·s | viscosity ([2]; Liquid, x1 = 0.5): 0.566 ± 0.004 mPa·s | viscosity ([2]; Liquid, x1 = 0.6): 0.538 ± 0.004 mPa·s | viscosity ([2]; Liquid, x1 = 0.7): 0.521 ± 0.004 mPa·s | viscosity ([2]; Liquid, x1 = 0.8): 0.508 ± 0.004 mPa·s | viscosity ([2]; Liquid, x1 = 0.9): 0.502 ± 0.004 mPa·s | mass density ([2]; Liquid, x1 = 0.1): 790.07 ± 0.48 kg/m3 | mass density ([2]; Liquid, x1 = 0.2): 799.51 ± 0.47 kg/m3 | mass density ([2]; Liquid, x1 = 0.3): 807.87 ± 0.46 kg/m3 | mass density ([2]; Liquid, x1 = 0.4): 815.42 ± 0.45 kg/m3 | mass density ([2]; Liquid, x1 = 0.5): 822.21 ± 0.44 kg/m3 | mass density ([2]; Liquid, x1 = 0.6): 828.46 ± 0.43 kg/m3 | mass density ([2]; Liquid, x1 = 0.7): 834.3 ± 0.42 kg/m3 | mass density ([2]; Liquid, x1 = 0.8): 839.71 ± 0.41 kg/m3 | mass density ([2]; Liquid, x1 = 0.9): 844.84 ± 0.4 kg/m3 | surface tension liquid-gas ([2]; Liquid, Ring tensiometer, x1 = 0.1): 21.56 ± 0.33 mN/m | surface tension liquid-gas ([2]; Liquid, Ring tensiometer, x1 = 0.2): 21.72 ± 0.33 mN/m | surface tension liquid-gas ([2]; Liquid, Ring tensiometer, x1 = 0.3): 21.84 ± 0.34 mN/m | surface tension liquid-gas ([2]; Liquid, Ring tensiometer, x1 = 0.4): 21.97 ± 0.34 mN/m | surface tension liquid-gas ([2]; Liquid, Ring tensiometer, x1 = 0.5): 22.05 ± 0.34 mN/m | surface tension liquid-gas ([2]; Liquid, Ring tensiometer, x1 = 0.6): 22.12 ± 0.34 mN/m | surface tension liquid-gas ([2]; Liquid, Ring tensiometer, x1 = 0.7): 22.17 ± 0.34 mN/m | surface tension liquid-gas ([2]; Liquid, Ring tensiometer, x1 = 0.8): 22.2 ± 0.34 mN/m | surface tension liquid-gas ([2]; Liquid, Ring tensiometer, x1 = 0.9): 22.18 ± 0.34 mN/m

CCCCOC(C)=O [butyl ethanoate] + O
viscosity ([2]; Liquid, x2 = 0.02): 0.503 ± 0.004 mPa·s | viscosity ([2]; Liquid, x2 = 0.04): 0.504 ± 0.004 mPa·s | viscosity ([2]; Liquid, x2 = 0.06): 0.506 ± 0.004 mPa·s | viscosity ([2]; Liquid, x2 = 0.08): 0.507 ± 0.004 mPa·s | mass density ([2]; Liquid, x2 = 0.02): 850.18 ± 0.4 kg/m3 | mass density ([2]; Liquid, x2 = 0.04): 850.62 ± 0.39 kg/m3 | mass density ([2]; Liquid, x2 = 0.06): 851.07 ± 0.39 kg/m3 | mass density ([2]; Liquid, x2 = 0.08): 851.57 ± 0.39 kg/m3 | interfacial tension ([2]; Liquid mixture 1, Ring tensiometer, x2 = 0.9998): 14.2 ± 0.3 mN/m | surface tension liquid-gas ([2]; Liquid mixture 2, Ring tensiometer, x2 = 0.1305): 21.74 ± 0.43 mN/m | surface tension liquid-gas ([2]; Liquid, Ring tensiometer, x2 = 0.02): 22.14 ± 0.34 mN/m | surface tension liquid-gas ([2]; Liquid, Ring tensiometer, x2 = 0.04): 22.17 ± 0.34 mN/m | surface tension liquid-gas ([2]; Liquid, Ring tensiometer, x2 = 0.06): 22.2 ± 0.34 mN/m | surface tension liquid-gas ([2]; Liquid, Ring tensiometer, x2 = 0.08): 22.25 ± 0.34 mN/m

CCCO [propan-1-ol]
surface tension liquid-gas ([1]; Ring tensiometer): 21.36 ± 0.06 mN/m | mass density [1]: 779.3 ± 0.51 kg/m3 | viscosity [1]: 1.115 ± 0.007 mPa·s

CCCO [propan-1-ol] + O
viscosity ([2]; Liquid, x2 = 0.05): 1.121 ± 0.007 mPa·s | viscosity ([2]; Liquid, x2 = 0.1): 1.127 ± 0.007 mPa·s | viscosity ([2]; Liquid, x2 = 0.2): 1.15 ± 0.007 mPa·s | viscosity ([2]; Liquid, x2 = 0.3): 1.18 ± 0.008 mPa·s | viscosity ([2]; Liquid, x2 = 0.4): 1.219 ± 0.008 mPa·s | viscosity ([2]; Liquid, x2 = 0.5): 1.26 ± 0.008 mPa·s | viscosity ([2]; Liquid, x2 = 0.6): 1.291 ± 0.008 mPa·s | viscosity ([2]; Liquid, x2 = 0.7): 1.305 ± 0.008 mPa·s | viscosity ([2]; Liquid, x2 = 0.8): 1.256 ± 0.008 mPa·s | viscosity ([2]; Liquid, x2 = 0.9): 1.036 ± 0.006 mPa·s | viscosity ([2]; Liquid, x2 = 0.95): 0.827 ± 0.005 mPa·s | mass density ([2]; Liquid, x2 = 0.05): 782.94 ± 0.49 kg/m3 | mass density ([2]; Liquid, x2 = 0.1): 786.61 ± 0.49 kg/m3 | mass density ([2]; Liquid, x2 = 0.2): 794.62 ± 0.47 kg/m3 | mass density ([2]; Liquid, x2 = 0.3): 803.64 ± 0.45 kg/m3 | mass density ([2]; Liquid, x2 = 0.4): 814.4 ± 0.43 kg/m3 | mass density ([2]; Liquid, x2 = 0.5): 827.68 ± 0.41 kg/m3 | mass density ([2]; Liquid, x2 = 0.6): 844.41 ± 0.38 kg/m3 | mass density ([2]; Liquid, x2 = 0.7): 865.87 ± 0.35 kg/m3 | mass density ([2]; Liquid, x2 = 0.8): 894.61 ± 0.31 kg/m3 | mass density ([2]; Liquid, x2 = 0.9): 935.04 ± 0.25 kg/m3 | mass density ([2]; Liquid, x2 = 0.95): 959.71 ± 0.22 kg/m3 | surface tension liquid-gas ([2]; Liquid, Ring tensiometer, x2 = 0.05): 21.55 ± 0.33 mN/m | surface tension liquid-gas ([2]; Liquid, Ring tensiometer, x2 = 0.1): 21.68 ± 0.33 mN/m | surface tension liquid-gas ([2]; Liquid, Ring tensiometer, x2 = 0.2): 21.93 ± 0.34 mN/m | surface tension liquid-gas ([2]; Liquid, Ring tensiometer, x2 = 0.3): 22.29 ± 0.34 mN/m | surface tension liquid-gas ([2]; Liquid, Ring tensiometer, x2 = 0.4): 22.68 ± 0.34 mN/m | surface tension liquid-gas ([2]; Liquid, Ring tensiometer, x2 = 0.5): 23.06 ± 0.35 mN/m | surface tension liquid-gas ([2]; Liquid, Ring tensiometer, x2 = 0.6): 23.42 ± 0.35 mN/m | surface tension liquid-gas ([2]; Liquid, Ring tensiometer, x2 = 0.7): 23.65 ± 0.35 mN/m | surface tension liquid-gas ([2]; Liquid, Ring tensiometer, x2 = 0.8): 24.12 ± 0.36 mN/m | surface tension liquid-gas ([2]; Liquid, Ring tensiometer, x2 = 0.9): 25.27 ± 0.37 mN/m | surface tension liquid-gas ([2]; Liquid, Ring tensiometer, x2 = 0.92): 26.37 ± 0.39 mN/m | surface tension liquid-gas ([2]; Liquid, Ring tensiometer, x2 = 0.95): 29.58 ± 0.43 mN/m | surface tension liquid-gas ([2]; Liquid, Ring tensiometer, x2 = 0.98): 44.44 ± 0.6 mN/m

O [water]
surface tension liquid-gas ([1]; ring detachment method): 68.38 ± 0.04 mN/m

Source: the NIST ThermoML archive (doi:10.1021/je900337a)
